In the NIST ThermoML archive (doi:10.1021/je030191w):

Legend:
[1] = 101 kPa, Liquid
[2] = xn = mol fraction of the nth substance listed; conditions: 101 kPa, Liquid, x1 = 1

CCn1cc[n+](C)c1.F[B-](F)(F)F [1-ethyl-3-methylimidazolium tetrafluoroborate]
[1]
Conditions | mass density [kg/m3] | viscosity [mPa·s]
293.15 K | 1340.7 | 45.29
298.15 K | 1336.7 | 37.19
303.15 K | 1332.9 | 31.36
308.15 K | 1329.6 | 25.56
313.15 K | 1325.9 | 21.54
318.15 K | 1322.2 | 18.84
323.15 K | 1319.5 | 15.9

O [water] + CCn1cc[n+](C)c1.F[B-](F)(F)F
[2]
Conditions | mass density [kg/m3] | viscosity [mPa·s]
293.15 K | – | 1.002
298.15 K | – | 0.89
303.15 K | – | 0.798
308.15 K | – | 0.719
313.15 K | – | 0.653
318.15 K | 990.1 | 0.599
323.15 K | 988 | 0.547
